The source of these data is ChEMBL document CHEMBL5579830, “Design and synthesis of 6-C-alkyl-DMDP type nanomolar inhibitors of β-galactosidase and β-glucosidase based on broussonetine S and related derivatives” (Eur J Med Chem, 2024).

Each structure is given as a SMILES string.

One assay deals with Alpha-glucosidase (Saccharomyces cerevisiae S288c, UniProt P53341+P38158+P07265). As to the kind of experiment: Inhibition of yeast alpha-glucosidase using p-nitrophenyl glycoside as substrate assessed as release of p-nitrophenol by spectrometric analysis. It counts as protein assay.
Assay [1] in a line: Inhibition of bovine liver beta-galactosidase using p-nitrophenyl glycoside as substrate assessed as release of p-nitrophenol by spectrometric analysis. Set-up: species or system Bos taurus.
In assay [2] the target is T1, Tissue alpha-L-fucosidase (Bos taurus) (UniProt Q2KIM0).
T1 sequence (whole entry): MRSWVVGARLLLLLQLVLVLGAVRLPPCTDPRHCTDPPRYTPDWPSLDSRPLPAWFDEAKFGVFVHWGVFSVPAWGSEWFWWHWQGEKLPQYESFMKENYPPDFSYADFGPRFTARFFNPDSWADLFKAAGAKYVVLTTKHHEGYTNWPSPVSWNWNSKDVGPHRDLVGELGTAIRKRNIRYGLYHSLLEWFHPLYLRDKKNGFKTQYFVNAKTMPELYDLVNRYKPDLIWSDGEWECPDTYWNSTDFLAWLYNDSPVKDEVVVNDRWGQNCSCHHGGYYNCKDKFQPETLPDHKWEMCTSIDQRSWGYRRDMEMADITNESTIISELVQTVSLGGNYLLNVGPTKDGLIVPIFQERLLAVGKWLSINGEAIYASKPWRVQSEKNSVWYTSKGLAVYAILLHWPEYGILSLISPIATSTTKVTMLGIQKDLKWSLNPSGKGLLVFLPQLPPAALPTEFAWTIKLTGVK
Put plainly: Inhibition of bovine kidney alpha-L-fucosidase using p-nitrophenyl glycoside as substrate assessed as release of p-nitrophenol at 1000 uM by spectrometric analysis relative to control.

Assay [3] has as its target Alpha-galactosidase (Coffea arabica) (UniProt Q42656). Put plainly: Inhibition of coffee bean alpha-galactosidase using p-nitrophenyl glycoside as substrate assessed as release of p-nitrophenol at 1000 uM by spectrometric analysis relative to control.
In assay [4] the target is T2, Alpha-mannosidase (Canavalia ensiformis) (UniProt C0HJB3).
T2 sequence (whole entry): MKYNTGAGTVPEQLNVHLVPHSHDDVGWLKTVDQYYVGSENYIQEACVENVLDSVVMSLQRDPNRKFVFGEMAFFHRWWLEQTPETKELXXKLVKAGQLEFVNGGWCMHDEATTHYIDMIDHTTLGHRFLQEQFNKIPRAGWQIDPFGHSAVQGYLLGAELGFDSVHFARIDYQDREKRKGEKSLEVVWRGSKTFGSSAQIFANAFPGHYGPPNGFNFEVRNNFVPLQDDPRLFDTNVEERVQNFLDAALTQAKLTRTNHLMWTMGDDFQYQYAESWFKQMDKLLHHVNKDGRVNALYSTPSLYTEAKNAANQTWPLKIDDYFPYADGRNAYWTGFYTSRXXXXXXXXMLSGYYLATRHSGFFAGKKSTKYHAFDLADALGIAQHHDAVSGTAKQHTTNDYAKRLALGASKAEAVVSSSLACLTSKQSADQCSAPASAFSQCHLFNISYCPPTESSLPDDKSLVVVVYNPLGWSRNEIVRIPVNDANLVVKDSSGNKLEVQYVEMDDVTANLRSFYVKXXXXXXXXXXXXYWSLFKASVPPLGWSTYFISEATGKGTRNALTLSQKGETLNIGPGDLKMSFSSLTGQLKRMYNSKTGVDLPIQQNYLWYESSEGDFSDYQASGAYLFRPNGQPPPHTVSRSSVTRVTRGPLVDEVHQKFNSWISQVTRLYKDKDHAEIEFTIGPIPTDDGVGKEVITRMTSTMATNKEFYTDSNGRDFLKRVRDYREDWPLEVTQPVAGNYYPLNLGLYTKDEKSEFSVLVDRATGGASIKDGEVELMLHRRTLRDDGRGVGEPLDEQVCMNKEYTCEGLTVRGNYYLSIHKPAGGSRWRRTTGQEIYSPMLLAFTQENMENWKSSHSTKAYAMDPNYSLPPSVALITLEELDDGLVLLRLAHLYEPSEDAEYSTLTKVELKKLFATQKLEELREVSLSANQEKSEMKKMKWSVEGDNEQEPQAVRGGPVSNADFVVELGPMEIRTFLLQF
Put plainly: Inhibition of jack bean alpha-mannosidase using p-nitrophenyl glycoside as substrate assessed as release of p-nitrophenol at 1000 uM by spectrometric analysis relative to control.

The nature of assay [5]: Inhibition of Escherichia coli beta-glucuronidase using p-nitrophenyl glycoside as substrate assessed as release of p-nitrophenol by spectrometric analysis.
A short description of assay [6]: Inhibition of snail beta-mannosidase using p-nitrophenyl glycoside as substrate assessed as release of p-nitrophenol by spectrometric analysis. Set-up: species or system Helix pomatia.
Assay [7] in a line: Inhibition of almond beta-glucosidase using p-nitrophenyl glycoside as substrate assessed as release of p-nitrophenol by spectrometric analysis. Set-up: species or system Prunus dulcis.
Assay [8] in a line: Inhibition of Aspergillus niger amyloglucosidase using p-nitrophenyl glycoside as substrate assessed as release of p-nitrophenol by spectrometric analysis.
Assay [9] concerns the target T3, Lysosomal acid glucosylceramidase (Homo sapiens, UniProt P04062).
T3 sequence (P04062 whole entry): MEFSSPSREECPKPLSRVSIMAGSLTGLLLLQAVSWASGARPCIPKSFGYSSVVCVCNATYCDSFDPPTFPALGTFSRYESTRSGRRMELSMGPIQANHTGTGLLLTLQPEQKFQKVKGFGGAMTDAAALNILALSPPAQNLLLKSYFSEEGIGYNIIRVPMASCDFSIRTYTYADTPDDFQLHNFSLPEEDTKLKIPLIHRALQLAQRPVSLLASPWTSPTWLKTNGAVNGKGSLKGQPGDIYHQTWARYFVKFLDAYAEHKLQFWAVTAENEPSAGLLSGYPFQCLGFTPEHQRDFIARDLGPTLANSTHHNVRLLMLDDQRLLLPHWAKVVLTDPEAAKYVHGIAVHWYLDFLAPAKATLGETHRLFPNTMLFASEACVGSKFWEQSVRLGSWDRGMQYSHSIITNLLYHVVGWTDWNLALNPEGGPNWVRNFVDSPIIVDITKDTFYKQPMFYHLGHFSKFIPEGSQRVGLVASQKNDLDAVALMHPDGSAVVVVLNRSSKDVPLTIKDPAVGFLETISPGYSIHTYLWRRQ
Put plainly: Inhibition of human lysosome beta-glucosidase using p-nitrophenyl glycoside as substrate assessed as release of p-nitrophenol by spectrometric analysis.

Assay [10] is described as follows: Inhibition of rice alpha-glucosidase using p-nitrophenyl glycoside as substrate assessed as release of p-nitrophenol by spectrometric analysis. Further details: species or system Oryza sativa.

Alpha-galactosidase (Coffea arabica), sequence (Q42656 16-378 limits assumed): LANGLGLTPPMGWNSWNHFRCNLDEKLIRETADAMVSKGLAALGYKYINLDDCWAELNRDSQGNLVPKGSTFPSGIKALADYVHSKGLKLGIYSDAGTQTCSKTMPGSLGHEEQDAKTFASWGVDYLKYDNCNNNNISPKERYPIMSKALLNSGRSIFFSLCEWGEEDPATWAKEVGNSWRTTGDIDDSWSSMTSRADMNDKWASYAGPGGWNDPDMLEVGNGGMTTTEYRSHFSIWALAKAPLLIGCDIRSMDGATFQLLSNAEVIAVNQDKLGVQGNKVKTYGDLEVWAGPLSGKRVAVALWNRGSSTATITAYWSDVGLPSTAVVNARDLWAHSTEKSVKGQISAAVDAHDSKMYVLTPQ

One may read the IC50 as the midpoint of a concentration-inhibition curve. Turning to `CCCCCCCCC[C@@H](O)[C@H]1N[C@H](CO)[C@@H](O)[C@@H]1O.Cl`, the concentration for half-maximal inhibition (IC50) at Alpha-glucosidase was 21 µM.

The inhibition is the drop in the measured response relative to a control, in per cent. Take `OCCC[C@H](O)CCCCCCCC[C@@H](O)[C@@H]1N[C@@H](CO)[C@H](O)[C@H]1O`: the values for the IC50 in [1] and in assay [5] were 3.9 µM and 35 µM, respectively. Besides, the inhibition in assay [2] was determined as 1.1%; in [3], 4.11%; in [4], 0%.

As for `OCCC[C@@H](O)CCCCCCCC[C@@H](O)[C@H]1N[C@H](CO)[C@@H](O)[C@@H]1O`, the IC50 came out at 0.005 µM in assay [1]; 62 µM in assay [6]; 0.53 µM in assay [7]; 3.3 µM in assay [5]; 62 µM in assay [8]. For the same compound, the inhibition stood at 6.5% in assay [2], 4.4% in [3] and 0% in assay [4].

`OCCC[C@H](O)CCCCCCCC[C@H](O)[C@H]1N[C@H](CO)[C@@H](O)[C@@H]1O`: the concentration for half-maximal inhibition (IC50) in assay [1] stood at 0.062 µM; in [7] it was 2.8 µM; in [5], 2.9 µM. Also, the inhibition in [2] is 6%; in [3], 4.7%; in assay [4], 0%.

As for `CCCCCCC[C@@H](O)[C@@H]1N[C@@H](CO)[C@H](O)[C@H]1O`, the IC50 in assay [1] was found to be 29 µM. The inhibition in assay [3] and in assay [4] was 0% each time.

For `CCCCCC[C@@H](O)[C@H]1N[C@H](CO)[C@@H](O)[C@@H]1O`, the half-inhibitory concentration (IC50) in assay [1] amounted to 0.05 µM; in [7], 0.2 µM; in [9], 73 µM; in assay [8] it was 92 µM. Further, the inhibition in assay [3] was 0%; in [4], 2.1%.

Consider `OCCC[C@H](O)CCCCCCCC[C@H](O)[C@@H]1N[C@@H](CO)[C@H](O)[C@H]1O`, for which the IC50 in assay [1] turned out to be 5.1 µM; in [10] it was 7.3 µM; in assay [5], 29 µM. The inhibition in assay [2] was 5.9%; in [3] it was 4.9%; in assay [4] it was 0%.

Consider `CCCCCC[C@H](O)[C@H]1N[C@H](CO)[C@@H](O)[C@@H]1O`, for which the results for the IC50 in assay [1] and in assay [7] were 0.36 µM and 0.64 µM, respectively. In addition, the inhibition in [3] came to 0%; in assay [4] it was 2.1%.

On to `CCCCCCCCC[C@H](O)[C@H]1N[C@H](CO)[C@@H](O)[C@@H]1O.Cl`, for which the IC50 on Alpha-glucosidase turned out to be 53 µM.

`CCCCCCCC[C@@H](O)[C@H]1N[C@H](CO)[C@@H](O)[C@@H]1O.Cl`: the IC50 at Alpha-glucosidase was 28 µM.

`OCCC[C@H](O)CCCCCCCC[C@@H](O)[C@H]1N[C@H](CO)[C@@H](O)[C@@H]1O`: the IC50 in assay [1] worked out at 0.007 µM; in assay [6] it was 71 µM; in assay [7], 0.69 µM; in assay [5], 2.7 µM; in [8] it was 73 µM. The inhibition stood at 0.86% in assay [2], 4.5% in assay [3] and 0% in assay [4].

As for `CCCCCCCC[C@H](O)[C@H]1N[C@H](CO)[C@@H](O)[C@@H]1O.Cl`, on Alpha-glucosidase, the half-inhibitory concentration (IC50) was 101 µM.

For `OCCC[C@@H](O)CCCCCCCCC[C@H]1N[C@H](CO)[C@@H](O)[C@@H]1O`, the IC50 was determined as 2.3 µM in [1] and 86 µM in assay [5]. For the same compound, the inhibition in assay [2] was determined as 0%; in assay [3] it was 0%; in [4], 2.5%.

In the case of `CCCCCCC[C@@H](O)[C@H]1N[C@H](CO)[C@@H](O)[C@@H]1O`, the half-maximal inhibitory concentration (IC50) was determined as 0.015 µM in assay [1]; 96 µM in assay [6]; 0.12 µM in assay [7]; 14 µM in [9]; 91 µM in assay [8]. Further, the values for the inhibition in assay [3] and in [4] were 0% and 1.7%, respectively.

As for `OCCC[C@@H](O)CCCCCCCC[C@H](O)[C@@H]1N[C@@H](CO)[C@H](O)[C@H]1O`, the IC50 is 0.74 µM in assay [1], 92 µM in assay [7], 11 µM in assay [10] and 56 µM in [5]. The results for the inhibition in [2], in assay [3] and in [4] were 4.3%, 4.8% and 2.2%, respectively.

Take `OCCC[C@@H](O)CCCCCCCC[C@H](O)C1N[C@H](CO)[C@@H](O)[C@@H]1O` (single isomer, unassigned): the IC50 in assay [1] turned out to be 0.046 µM; in assay [7], 1.8 µM; in assay [5] it was 2.5 µM. In addition, the inhibition in assay [2] turned out to be 0.43%; in [3], 4.6%; in [4], 0%.

Take `CCCCCCC[C@H](O)[C@H]1N[C@H](CO)[C@@H](O)[C@@H]1O`: the IC50 in assay [1] was determined as 0.39 µM; in assay [7], 0.54 µM. For the same compound, the inhibition was 0% in assay [3] and 0.2% in [4].

With `Cl.OCCC[C@@H](O)CCCCCCCC[C@@H](O)[C@@H]1N[C@@H](CO)[C@H](O)[C@H]1O`, the 50% inhibitory concentration (IC50) in assay [1] turned out to be 2.3 µM; at Alpha-glucosidase, 49 µM; in assay [5], 46 µM. For the same compound, the results for the inhibition in assay [2], in [3] and in assay [4] were 8.6%, 4.1% and 0%, respectively.
